Laboratory results as given in article PMC7395176, “Retromer stabilization results in neuroprotection in a model of Amyotrophic Lateral Sclerosis” (Nature Communications, 2020).
Values joined by “and” are separate entries in the source; they are usually repeats but may differ in a detail not shown here. Equal values may be shown once.

Experiments:
[1] = test system: VPS26b; assay: Western blot for VPS26b in treated Neuro2a cells; format: cell-based; details: 10 µM, 48 h, WB
Experimental: Compound 2a increases VPS26b and VPS29 in Neuro2a […]
a,WBs forVPS26b, VPS29 and β-Tubulin in vehicle- and compound 2a-treated Neuro2a cells(10 μM, 48h, 3x10^5 cells/well).Quantitative analyses of blots (means ± SD) are shown inhistograms (control:n=4 independent wells, 2a: n=5 independent wells examined in one experiment, p<0.0001 for all the comparisons. Two-tailed Student’s test was used to determine the statisticalsignificanceof data, ***p<0.0001
(1 picture or pasted object on this page, not shown here)

[2] = Brain uptake of compound 2a by LC-MS/MS in C57BL/6J mice; format: in vivo; details: C57BL6J mice, daily intraperitoneal injections 10 mg/kg; 1, 7, 15, 30 days
Experimental: Compounds 2a, 4a, and standard R55/1 (10 mg/Kg) were intraperitoneally injected in C57BL6J mice daily. After 1 week, mice were sacrificed, saline perfused to avoid CNS contamination by compounds in blood circulation, and SC protein extracts were assayed by WB. […] Therefore, phenyl-1,3-bis-guanylhydrazone 2a was selected as an early lead.
Quantification of compound 2a in CNS extracts of C57BL/6J mice was performed at ProMeFa facility (Proteomics and Metabolomics Facility) of San Raffaele Scientific Institute. Wild-type C57BL/6J males mice (P60) were intraperitoneally injected with compound 2a (10 mg/kg) or vehicle, daily. We sacrificed mice at the following time points: 1, 7, 15, and 30 days. Before brains collection, mice received saline perfusion. Brains were weighted (~350 mg each) and rapidly frozen at −80 °C. The extraction was performed with methanol and each biological sample was resuspended in 60 µl of LC/MS grade water and 5 µL were analyzed by LC-MS/MS using the UPLC 1290 (Agilent Technologies) coupled to the TripleTOF 5600+ mass spectrometer (SCIEX). […] Calibration curve in brain was constructed by plotting the peak area versus corresponding quantities of compound 2a (0; 0.1; 0.26; 1 nmol, run in quadruplicates, R2 = 0.9443), using MultiQuant 2.1 software (SCIEX).

[3] = test system: Neuro2a cells; assay: Neuro2a cell survival (CCK8) with increasing 2a concentrations; format: cell-based; details: 48 h
Experimental: We assessed the cytotoxicity of compound 2a, measuring survival of Neuro2a cells exposed to increasing 2a concentrations. […] We next checked for toxic effects of compound 2a in primary neuronal cultures coupled with Micro Electrode Array (MEA) devices. Mouse cortical neurons (E16.5) were plated on MEAs, kept in culture for 14 days to develop firing activity and recorded in presence of 2a.
Cell survival experiments were run on 96-well plates using Cell Counting Kit-8 (CCK8) survival kit (96992-Sigma–Aldrich) according the manufacturer’s recommendations. Compound 2a cytotoxicity was tested on Neuro2a cells receiving increasing amounts of compound 2a (1, 10, 50, 100, 200, 500, and 1000 µM) for 48 h. Data were acquired using an Epoch spectrophotometer equipped with the GEN5 (2.03.1) software (Agilent).

[4] = test system: SOD1^G93A-transfected Neuro2a cells; assay: Cell viability of SOD1G93A-transfected Neuro2a cells (colorimetric assay); format: cell-based; details: 10 µM
From the text: The Golgi apparatus is affected in MNs from ALS patients and in cells overexpressing mutant SOD1 forms[35]–[37]. We transiently transfected Neuro2a cells with plasmids encoding SOD1^G93A before treatment with compound 2a. […] We next determined the viability of Neuro2a cells transfected with SOD1^G93A and exposed to compound 2a using a colorimetric assay. Controls cells received LacZ plasmids. […] We observed a slight, but not significant, reduction of cell viability in […] Neuro2a cells (Fig. 3b). […] The increased cell viability provided by compound 2a could result from unknown, nonspecific off-target effects. Therefore, we used plasmids encoding VPS35 to increase/stabilize the retromer complex. […] However, this phenotype was reverted co-transfecting VPS35 and SOD1^G93A plasmids (Fig. 3c).
Having observed a marked improvement of viability in SOD1^G93A-transfected Neuro2a cells with VPS35 gain of function, we investigated the effect of VPS35 loss of function. We transfected Neuro2a cells with RNAi plasmids encoding a siRNA duplex for VPS35, to knockdown VPS35 and disrupt the retromer assembly. […] By including Sh56 plasmids in the transfection mix, we worsened this phenotype (Fig. 3d). […] We next assayed cytotoxicity by measuring lactate dehydrogenase (LDH) release with a LDH-Glo™ cytotoxicity assay. […]

In the case of NC(N)=N/N=C/c1cccc(/C=N/N=C(N)N)c1 [compound 2a, phenyl-1,3-bis-guanylhydrazone], the VPS26b protein levels [1] is reported as “significantly increased”, the “access to the CNS (brain uptake)” value [2] is reported as “confirmed its access to the CNS” and the cell survival ([3]; 10 μM) is reported as “did not affect cell survival”. The LD50 ([3]; 1–1000 µM) was 257.9 µM and ~260 µM and the cell viability [4] was “cell viability was restored”.
